Experimental data as given in ChEMBL document CHEMBL5120927, “LEGO-Lipophosphonoxins: A Novel Approach in Designing Membrane Targeting Antimicrobials” (J Med Chem, 2022).

system: not listed separately; test: Gradient chromatographic hydrophobicity index of the compound at pH 3.7 by HPLC analysis; format: ADME; conditions: not given

| Compound | CHI |
| --- | --- |
| CC/C=C\CCCOP(=O)(CCN(CCCN)CCCN)OCCCCCOP(=O)(CCN(CCCN)CCCN)OCCC/C=C\CC.Cl.Cl.Cl.Cl.Cl.Cl (centres undefined) | 27.7 |
| Cl.Cl.Cl.Cl.Cl.Cl.NCCCN(CCCN)CCP(=O)(OCCCCCCOP(=O)(CCN(CCCN)CCCN)OCC1CCCC1)OCC1CCCC1 (centres undefined) | 14.8 |
| CCCCOP(=O)(CCN(CCCN)CCCN)OCCCCCCCCOP(=O)(CCN(CCCN)CCCN)OCCCC.Cl.Cl.Cl.Cl.Cl.Cl (centres undefined) | 11 |

system: Staphylococcus aureus; test: Antibacterial activity against Staphylococcus aureus ATCC 29213 = CCM 4223 assessed as inhibition of bacterial growth incubated for 24 hrs in presence of BSA by microdilution assay; format: functional; conditions: not given

| Compound | MIC |
| --- | --- |
| CC/C=C\CCCOP(=O)(CCN(CCCN)CCCN)OCCCCCOP(=O)(CCN(CCCN)CCCN)OCCC/C=C\CC.Cl.Cl.Cl.Cl.Cl.Cl (centres undefined) | 64 µg/mL |
| Cl.Cl.Cl.Cl.Cl.Cl.NCCCN(CCCN)CCP(=O)(OCCCCCCOP(=O)(CCN(CCCN)CCCN)OCC1CCCC1)OCC1CCCC1 (centres undefined) | > 128 µg/mL |
| CCCCOP(=O)(CCN(CCCN)CCCN)OCCCCCCCCOP(=O)(CCN(CCCN)CCCN)OCCCC.Cl.Cl.Cl.Cl.Cl.Cl (centres undefined) | > 128 µg/mL |

system: Enterococcus faecium; test: Antibacterial activity against vancomycin resistant Enterococcus faecium 419/ANA assessed as reduction in microbial growth incubated for 24 hrs by microdilution assay; format: functional; conditions: not given

| Compound | MIC |
| --- | --- |
| CC/C=C\CCCOP(=O)(CCN(CCCN)CCCN)OCCCCCOP(=O)(CCN(CCCN)CCCN)OCCC/C=C\CC.Cl.Cl.Cl.Cl.Cl.Cl (centres undefined) | > 128 µg/mL |
| Cl.Cl.Cl.Cl.Cl.Cl.NCCCN(CCCN)CCP(=O)(OCCCCCCOP(=O)(CCN(CCCN)CCCN)OCC1CCCC1)OCC1CCCC1 (centres undefined) | > 128 µg/mL |
| CCCCOP(=O)(CCN(CCCN)CCCN)OCCCCCCCCOP(=O)(CCN(CCCN)CCCN)OCCCC.Cl.Cl.Cl.Cl.Cl.Cl (centres undefined) | > 128 µg/mL |

system: Pseudomonas aeruginosa; test: Antibacterial activity against multidrug-resistant Pseudomonas aeruginosa assessed as reduction in microbial growth incubated for 24 hrs by microdilution assay; format: functional; conditions: not given

| Compound | MIC |
| --- | --- |
| CC/C=C\CCCOP(=O)(CCN(CCCN)CCCN)OCCCCCOP(=O)(CCN(CCCN)CCCN)OCCC/C=C\CC.Cl.Cl.Cl.Cl.Cl.Cl (centres undefined) | > 128 µg/mL |
| Cl.Cl.Cl.Cl.Cl.Cl.NCCCN(CCCN)CCP(=O)(OCCCCCCOP(=O)(CCN(CCCN)CCCN)OCC1CCCC1)OCC1CCCC1 (centres undefined) | > 128 µg/mL |
| CCCCOP(=O)(CCN(CCCN)CCCN)OCCCCCCCCOP(=O)(CCN(CCCN)CCCN)OCCCC.Cl.Cl.Cl.Cl.Cl.Cl (centres undefined) | > 128 µg/mL |

system: Escherichia coli; test: Antibacterial activity against Escherichia coli ATCC 25922 = CCM 3954 assessed as inhibition of bacterial growth incubated for 24 hrs in presence of BSA by microdilution assay; format: functional; conditions: not given

| Compound | MIC |
| --- | --- |
| CC/C=C\CCCOP(=O)(CCN(CCCN)CCCN)OCCCCCOP(=O)(CCN(CCCN)CCCN)OCCC/C=C\CC.Cl.Cl.Cl.Cl.Cl.Cl (centres undefined) | > 128 µg/mL |
| Cl.Cl.Cl.Cl.Cl.Cl.NCCCN(CCCN)CCP(=O)(OCCCCCCOP(=O)(CCN(CCCN)CCCN)OCC1CCCC1)OCC1CCCC1 (centres undefined) | > 128 µg/mL |
| CCCCOP(=O)(CCN(CCCN)CCCN)OCCCCCCCCOP(=O)(CCN(CCCN)CCCN)OCCCC.Cl.Cl.Cl.Cl.Cl.Cl (centres undefined) | > 128 µg/mL |

system: Enterococcus faecalis; test: Antibacterial activity against Enterococcus faecalis ATCC 29212 = CCM 4224 assessed as inhibition of bacterial growth incubated for 24 hrs by microdilution assay; format: functional; conditions: not given

| Compound | MIC |
| --- | --- |
| CC/C=C\CCCOP(=O)(CCN(CCCN)CCCN)OCCCCCOP(=O)(CCN(CCCN)CCCN)OCCC/C=C\CC.Cl.Cl.Cl.Cl.Cl.Cl (centres undefined) | > 128 µg/mL |
| Cl.Cl.Cl.Cl.Cl.Cl.NCCCN(CCCN)CCP(=O)(OCCCCCCOP(=O)(CCN(CCCN)CCCN)OCC1CCCC1)OCC1CCCC1 (centres undefined) | > 128 µg/mL |
| CCCCOP(=O)(CCN(CCCN)CCCN)OCCCCCCCCOP(=O)(CCN(CCCN)CCCN)OCCCC.Cl.Cl.Cl.Cl.Cl.Cl (centres undefined) | > 128 µg/mL |

system: Staphylococcus epidermidis; test: Antibacterial activity against Staphylococcus epidermidis CCM 7221 assessed as inhibition of bacterial growth incubated for 24 hrs by microdilution assay; format: functional; conditions: not given

| Compound | MIC |
| --- | --- |
| CC/C=C\CCCOP(=O)(CCN(CCCN)CCCN)OCCCCCOP(=O)(CCN(CCCN)CCCN)OCCC/C=C\CC.Cl.Cl.Cl.Cl.Cl.Cl (centres undefined) | 8 µg/mL |
| Cl.Cl.Cl.Cl.Cl.Cl.NCCCN(CCCN)CCP(=O)(OCCCCCCOP(=O)(CCN(CCCN)CCCN)OCC1CCCC1)OCC1CCCC1 (centres undefined) | 64 µg/mL |
| CCCCOP(=O)(CCN(CCCN)CCCN)OCCCCCCCCOP(=O)(CCN(CCCN)CCCN)OCCCC.Cl.Cl.Cl.Cl.Cl.Cl (centres undefined) | 64 µg/mL |

system: Staphylococcus aureus; test: Antibacterial activity against Staphylococcus aureus ATCC 29213 = CCM 4223 assessed as inhibition of bacterial growth incubated for 24 hrs by microdilution assay; format: functional; conditions: not given

| Compound | MIC |
| --- | --- |
| CC/C=C\CCCOP(=O)(CCN(CCCN)CCCN)OCCCCCOP(=O)(CCN(CCCN)CCCN)OCCC/C=C\CC.Cl.Cl.Cl.Cl.Cl.Cl (centres undefined) | 16 µg/mL |
| Cl.Cl.Cl.Cl.Cl.Cl.NCCCN(CCCN)CCP(=O)(OCCCCCCOP(=O)(CCN(CCCN)CCCN)OCC1CCCC1)OCC1CCCC1 (centres undefined) | 128 µg/mL |
| CCCCOP(=O)(CCN(CCCN)CCCN)OCCCCCCCCOP(=O)(CCN(CCCN)CCCN)OCCCC.Cl.Cl.Cl.Cl.Cl.Cl (centres undefined) | > 128 µg/mL |

system: Escherichia coli; test: Antibacterial activity against multidrug-resistant Escherichia coli CE5556 expressing CTX-M-15 assessed as reduction in microbial growth incubated for 24 hrs by microdilution assay; format: functional; conditions: not given

| Compound | MIC |
| --- | --- |
| CC/C=C\CCCOP(=O)(CCN(CCCN)CCCN)OCCCCCOP(=O)(CCN(CCCN)CCCN)OCCC/C=C\CC.Cl.Cl.Cl.Cl.Cl.Cl (centres undefined) | > 128 µg/mL |
| Cl.Cl.Cl.Cl.Cl.Cl.NCCCN(CCCN)CCP(=O)(OCCCCCCOP(=O)(CCN(CCCN)CCCN)OCC1CCCC1)OCC1CCCC1 (centres undefined) | > 128 µg/mL |
| CCCCOP(=O)(CCN(CCCN)CCCN)OCCCCCCCCOP(=O)(CCN(CCCN)CCCN)OCCCC.Cl.Cl.Cl.Cl.Cl.Cl (centres undefined) | > 128 µg/mL |

system: not listed separately; test: Hemolytic activity in human RBC assessed as haemoglobin release measured after 3 hr; format: toxicity, cell-based, Erythrocyte; conditions: red blood cells (erythrocytes)

| Compound | HC50 at 3 h |
| --- | --- |
| CC/C=C\CCCOP(=O)(CCN(CCCN)CCCN)OCCCCCOP(=O)(CCN(CCCN)CCCN)OCCC/C=C\CC.Cl.Cl.Cl.Cl.Cl.Cl (centres undefined) | > 200 µg/mL |
| Cl.Cl.Cl.Cl.Cl.Cl.NCCCN(CCCN)CCP(=O)(OCCCCCCOP(=O)(CCN(CCCN)CCCN)OCC1CCCC1)OCC1CCCC1 (centres undefined) | > 1000 µg/mL |
| CCCCOP(=O)(CCN(CCCN)CCCN)OCCCCCCCCOP(=O)(CCN(CCCN)CCCN)OCCCC.Cl.Cl.Cl.Cl.Cl.Cl (centres undefined) | > 100 µg/mL |

system: Escherichia coli; test: Antibacterial activity against Escherichia coli ATCC 25922 = CCM 3954 assessed as inhibition of bacterial growth incubated for 24 hrs by microdilution assay; format: functional; conditions: not given

| Compound | MIC |
| --- | --- |
| CC/C=C\CCCOP(=O)(CCN(CCCN)CCCN)OCCCCCOP(=O)(CCN(CCCN)CCCN)OCCC/C=C\CC.Cl.Cl.Cl.Cl.Cl.Cl (centres undefined) | 128 µg/mL |
| Cl.Cl.Cl.Cl.Cl.Cl.NCCCN(CCCN)CCP(=O)(OCCCCCCOP(=O)(CCN(CCCN)CCCN)OCC1CCCC1)OCC1CCCC1 (centres undefined) | > 128 µg/mL |
| CCCCOP(=O)(CCN(CCCN)CCCN)OCCCCCCCCOP(=O)(CCN(CCCN)CCCN)OCCCC.Cl.Cl.Cl.Cl.Cl.Cl (centres undefined) | 128 µg/mL |

system: Staphylococcus aureus; test: Antibacterial activity against methicillin resistant Staphylococcus aureus 4591/A assessed as reduction in microbial growth incubated for 24 hrs by microdilution assay; format: functional; conditions: not given

| Compound | MIC |
| --- | --- |
| CC/C=C\CCCOP(=O)(CCN(CCCN)CCCN)OCCCCCOP(=O)(CCN(CCCN)CCCN)OCCC/C=C\CC.Cl.Cl.Cl.Cl.Cl.Cl (centres undefined) | 32 µg/mL |
| Cl.Cl.Cl.Cl.Cl.Cl.NCCCN(CCCN)CCP(=O)(OCCCCCCOP(=O)(CCN(CCCN)CCCN)OCC1CCCC1)OCC1CCCC1 (centres undefined) | 128 µg/mL |
| CCCCOP(=O)(CCN(CCCN)CCCN)OCCCCCCCCOP(=O)(CCN(CCCN)CCCN)OCCCC.Cl.Cl.Cl.Cl.Cl.Cl (centres undefined) | > 128 µg/mL |

system: Pseudomonas aeruginosa; test: Antibacterial activity against Pseudomonas aeruginosa ATCC 27853 = CCM 3955 assessed as inhibition of bacterial growth incubated for 24 hrs by microdilution assay; format: functional; conditions: not given

| Compound | MIC |
| --- | --- |
| CC/C=C\CCCOP(=O)(CCN(CCCN)CCCN)OCCCCCOP(=O)(CCN(CCCN)CCCN)OCCC/C=C\CC.Cl.Cl.Cl.Cl.Cl.Cl (centres undefined) | > 128 µg/mL |
| Cl.Cl.Cl.Cl.Cl.Cl.NCCCN(CCCN)CCP(=O)(OCCCCCCOP(=O)(CCN(CCCN)CCCN)OCC1CCCC1)OCC1CCCC1 (centres undefined) | > 128 µg/mL |
| CCCCOP(=O)(CCN(CCCN)CCCN)OCCCCCCCCOP(=O)(CCN(CCCN)CCCN)OCCCC.Cl.Cl.Cl.Cl.Cl.Cl (centres undefined) | > 128 µg/mL |
